Source: patent US11136317B2, “NADPH oxidase 4 inhibitors” (ACTELION PHARMACEUTICALS LTD, priority 2015, dated 2021)
Each block holds one compound with its values, some of them ahead of it.

Target: T1, human NOX4 (Homo sapiens, UniProt Q9NPH5)
T1 construct: The full-length human NOX4 (NM_016931.3) transcript was cloned; expressed in transfected cells
T1 sequence (Q9NPH5 1-578): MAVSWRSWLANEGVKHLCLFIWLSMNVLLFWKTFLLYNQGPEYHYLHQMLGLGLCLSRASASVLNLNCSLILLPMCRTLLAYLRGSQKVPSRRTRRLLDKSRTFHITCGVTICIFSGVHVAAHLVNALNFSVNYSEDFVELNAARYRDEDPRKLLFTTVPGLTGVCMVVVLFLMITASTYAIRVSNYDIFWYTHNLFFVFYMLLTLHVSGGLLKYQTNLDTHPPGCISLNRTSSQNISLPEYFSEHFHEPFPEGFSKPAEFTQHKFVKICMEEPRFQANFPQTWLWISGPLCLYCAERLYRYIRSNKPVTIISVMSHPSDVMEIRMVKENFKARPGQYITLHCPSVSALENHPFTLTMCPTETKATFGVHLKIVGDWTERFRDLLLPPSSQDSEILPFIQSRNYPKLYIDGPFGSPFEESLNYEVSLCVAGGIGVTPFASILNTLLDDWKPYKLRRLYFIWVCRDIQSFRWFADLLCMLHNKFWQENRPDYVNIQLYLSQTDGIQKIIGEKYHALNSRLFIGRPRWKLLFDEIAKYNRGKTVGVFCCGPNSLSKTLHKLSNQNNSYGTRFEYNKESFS
T1 sequence (P13498 1-195 partner): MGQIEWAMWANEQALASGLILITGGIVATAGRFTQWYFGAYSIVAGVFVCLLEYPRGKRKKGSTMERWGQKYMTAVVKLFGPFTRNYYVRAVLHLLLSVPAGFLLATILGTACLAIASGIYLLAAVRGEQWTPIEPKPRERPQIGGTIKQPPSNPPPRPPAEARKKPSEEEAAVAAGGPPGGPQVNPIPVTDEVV
Assay: Amplex Red activity assay (cellular H2O2 formation in hNOX4 T-REx-293 cells)
Format: cell-based
Conditions: tet-induced 24 h, extracellular H2O2 by Amplex Red, 60 min 25° C., geometric mean if determined several times
Procedure: The nucleotide sequence and the amino acid sequence for the human NOX4 (Entrez Gene ID 50507) is known in the art and are published. The potency and efficacy of the compounds of Formula (I) are assessed for their potential to inhibit the formation of ROS in a cellular assay.
The full-length human NOX4 (NM_016931.3) transcript was cloned into the pDONR™221 vector (Life Technologies™) in order to generate, by site-specific integration according to the recommendation of the manufacturer (Life Technologies™), a recombinant pJTI™ R4 DEST CMV-TO vector containing the NOX4 coding information controlled by tetracycline (tet) responsive tet-on cytomegalovirus promoter (hNOX4 pDEST).
Modified human embryonic kidney cells overexpressing a tet receptor (Jump-In™ T-REx™ HEK293; Life Technologies™) were transfected with the NOX4-containing tet-on vector (hNOX4 pDEST) to generate a stable recombinant cell pool (hNOX4 T-REx-293). hNOX4 T-REx-293 cells were cultured in DMEM containing 4.5 g/L glucose supplemented with 10% fetal calf serum, penicillin (100 U/mL), streptomycin (100 μg/mL), geneticin (1 mg/mL), and blasticidin (5 μg/mL) at 37° C. in air with 5% CO2. Human Nox4 expression was induced with tet (1 μg/mL) for 24 h and extracellular H2O2 was quantified using the Amplex Red reagent (Life Technologies™).
Compounds were prepared as 10 mM stock solution in DMSO vehicle, then diluted in 384-well plates using DMSO followed by a transfer of the dilutions into the assay plate. As a control, diphenylene iodonium was included at a final concentration of 10 μM. Compounds were tested at 10 concentrations in the range from 50 μM highest to 100 nM lowest.
Cellular H2O2 formation was measured using the Amplex Red reagent. […] Cells were seeded into 384-well clear bottom plates at a density of 20 000 cells per well in presence or absence of compounds. […] All wells contained 1.25% of DMSO. The plates were kept at 25° C. for 60 min. The amount of produced resorufin was detected with the Synergy™ Mx microplate reader (BioTek) with excitation and emission wavelengths set to 550 nm and 600 nm, respectively. Fluorescence was measured for each well and the fluorescence at 600 nm wavelength was compared to the fluorescence of the vehicle in place of compound. Inhibitory activities of example compounds were determined by calculating the IC50 value (the concentration of compound needed to inhibit 50% of the enzyme activity). The calculated IC50 values may fluctuate depending on the daily cellular assay performance. Fluctuations of this kind are known to those skilled in the art.

Compound: O=C(Nc1ccc2sc(N3CCC3c3ccccc3)nc2c1)c1ccc2c(c1)CCO2 (racemic) [Example 111, rac-2,3-Dihydro-benzofuran-5-carboxylic acid [2-(2-phenyl-azetidin-1-yl)-benzothiazol-5-yl]-amide]
IC50: 1.09 µM

Compound: O=C(Nc1ccc2oc(N3CCCC3)nc2c1)c1ccc2c(c1)CCO2 [Example 3, 2,3-Dihydro-benzofuran-5-carboxylic acid (2-pyrrolidin-1-yl-benzooxazol-5-yl)-amide]
IC50: 0.899 µM

Compound: CN1CCN(c2nc3cc(NC(=O)c4ccc5c(c4)CCO5)ccc3o2)CC1 [Example 4, 2,3-Dihydro-benzofuran-5-carboxylic acid [2-(4-methyl-piperazin-1-yl)-benzooxazol-5-yl]-amide]
IC50: 0.967 µM

Compound: O=C(Nc1ccc2oc(N3CC(F)(F)C3)nc2c1)c1ccc2c(c1)CCO2 [Example 8, 2,3-Dihydro-benzofuran-5-carboxylic acid [2-(3,3-difluoro-azetidin-1-yl)-benzooxazol-5-yl]-amide]
IC50: 1.89 µM

Compound: COC1CCN(c2nc3cc(NC(=O)c4ccc5c(c4)CCO5)ccc3o2)C1 (centres unmarked) [Example 10, 2,3-Dihydro-benzofuran-5-carboxylic acid [2-(3-methoxy-pyrrolidin-1-yl)-benzooxazol-5-yl]-amide]
IC50: 0.711 µM

Compound: CN(C)CCN(C)c1nc2cc(NC(=O)c3ccc4c(c3)CCO4)ccc2o1 [Example 13, 2,3-Dihydro-benzofuran-5-carboxylic acid {2-[(2-dimethylamino-ethyl)-methyl-amino]-benzooxazol-5-yl}-amide; compound with formic acid]
IC50: 5.36 µM

Compound: CN(C)C1CCN(c2nc3cc(NC(=O)c4ccc5c(c4)CCO5)ccc3o2)CC1 [Example 14, 2,3-Dihydro-benzofuran-5-carboxylic acid [2-(4-dimethylamino-piperidin-1-yl)-benzooxazol-5-yl]-amide; compound with formic acid]
IC50: 1.7 µM

Compound: O=C(Nc1ccc2oc(N3CC(N4CCOCC4)C3)nc2c1)c1ccc2c(c1)CCO2 [Example 17, 2,3-Dihydro-benzofuran-5-carboxylic acid [2-(3-morpholin-4-yl-azetidin-1-yl)-benzooxazol-5-yl]-amide]
IC50: 2.3 µM

Compound: O=C(Nc1ccc2oc(N3CC(N4CCS(=O)(=O)CC4)C3)nc2c1)c1ccc2c(c1)CCO2 [Example 19, 2,3-Dihydro-benzofuran-5-carboxylic acid {2-[3-(1,1-dioxo-1l6-thiomoipholin-4-yl)-azetidin-1-yl]-benzooxazol-5-yl}-amide]
IC50: 2.89 µM

Compound: CC1(O)CN(C2CN(c3nc4cc(NC(=O)c5ccc6c(c5)CCO6)ccc4o3)C2)C1 [Example 20, 2,3-Dihydro-benzofuran-5-carboxylic acid [2-(3-hydroxy-3-methyl-[1,3′]biazetidinyl-1′-yl)-benzooxazol-5-yl]-amide]
IC50: 1.4 µM

Compound: O=C(Nc1ccc2oc(N3CC4(CCO4)C3)nc2c1)c1ccc2c(c1)CCO2 [Example 21, 2,3-Dihydro-benzofuran-5-carboxylic acid [2-(1-oxa-6-aza-spiro[3.3]hept-6-yl)-benzooxazol-5-yl]-amide]
IC50: 1.61 µM

Compound: O=C(Nc1ccc2oc(N3CC4(CCCOC4)C3)nc2c1)c1ccc2c(c1)CCO2 [Example 23, 2,3-Dihydro-benzofuran-5-carboxylic acid [2-(6-oxa-2-aza-spiro[3.5]non-2-yl)-benzooxazol-5-yl]-amide]
IC50: 1.47 µM

Compound: O=C(Nc1ccc2oc(N3CCCC4(CCO4)C3)nc2c1)c1ccc2c(c1)CCO2 (centres unmarked) [Example 25, 2,3-Dihydro-benzofuran-5-carboxylic acid [2-(1-oxa-6-aza-spiro[3.5]non-6-yl)-benzooxazol-5-yl]-amide]
IC50: 0.804 µM

Now from value to compound:

IC50: 0.702 µM
Compound: O=C(Nc1ccc2oc(N3CCC3c3ccccc3)nc2c1)c1ccc2c(c1)CCO2 (racemic) [Example 62, rac-2,3-Dihydro-benzofuran-5-carboxylic acid [2-(2-phenyl-azetidin-1-yl)-benzooxazol-5-yl]-amide]

IC50: 0.639 µM
Compound: O=C(Nc1ccc2oc(N3CCCCC3)nc2c1)c1ccc2c(c1)CCO2 [Example 2, 2,3-Dihydro-benzofuran-5-carboxylic acid (2-piperidin-1-yl-benzooxazol-5-yl)-amide]

IC50: 0.627 µM
Compound: O=C(Nc1ccc2oc(N3CCOCC3)nc2c1)c1ccc2c(c1)CCO2 [Example 5, 2,3-Dihydro-benzofuran-5-carboxylic acid (2-morpholin-4-yl-benzooxazol-5-yl)-amide]

IC50: 0.559 µM
Compound: CCN(CC)c1nc2cc(NC(=O)c3ccc4c(c3)CCO4)ccc2o1 [Example 6, 2,3-Dihydro-benzofuran-5-carboxylic acid (2-diethylamino-benzooxazol-5-yl)-amide]

IC50: 0.358 µM
Compound: O=C(Nc1ccc2oc(N3CCC(F)(F)CC3)nc2c1)c1ccc2c(c1)CCO2 [Example 7, 2,3-Dihydro-benzofuran-5-carboxylic acid [2-(4,4-difluoro-piperidin-1-yl)-benzooxazol-5-yl]-amide]

IC50: 0.573 µM
Compound: O=C(Nc1ccc2oc(N3CCC(F)(F)C3)nc2c1)c1ccc2c(c1)CCO2 [Example 9, 2,3-Dihydro-benzofuran-5-carboxylic acid [2-(3,3-difluoro-pyrrolidin-1-yl)-benzooxazol-5-yl]-amide]

IC50: 0.358 µM
Compound: COC1CCN(c2nc3cc(NC(=O)c4ccc5c(c4)CCO5)ccc3o2)CC1 [Example 11, 2,3-Dihydro-benzofuran-5-carboxylic acid [2-(4-methoxy-piperidin-1-yl)-benzooxazol-5-yl]-amide]

IC50: 0.688 µM
Compound: CC1(O)CN(c2nc3cc(NC(=O)c4ccc5c(c4)CCO5)ccc3o2)C1 [Example 12, 2,3-Dihydro-benzofuran-5-carboxylic acid [2-(3-hydroxy-3-methyl-azetidin-1-yl)-benzooxazol-5-yl]-amide]

IC50: 0.405 µM
Compound: O=C(Nc1ccc2oc(N3CCC34COC4)nc2c1)c1ccc2c(c1)CCO2 [Example 15, 2,3-Dihydro-benzofuran-5-carboxylic acid [2-(6-oxa-1-aza-spiro[3.3]hept-1-yl)-benzooxazol-5-yl]-amide]

IC50: 0.389 µM
Compound: O=C(Nc1ccc2oc(N3CCCC(F)(F)C3)nc2c1)c1ccc2c(c1)CCO2 [Example 16, 2,3-Dihydro-benzofuran-5-carboxylic acid [2-(3,3-difluoro-pipeiidin-1-yl)-benzooxazol-5-yl]-amide]

IC50: 0.568 µM
Compound: CN(c1nc2cc(NC(=O)c3ccc4c(c3)CCO4)ccc2o1)C1(C)COC1 [Example 18, 2,3-Dihydro-benzofuran-5-carboxylic acid {2-[methyl-(3-methyl-oxetan-3-yl)-amino]-benzooxazol-5-yl}-amide]

IC50: 0.505 µM
Compound: O=C(Nc1ccc2oc(N3CCC4(COC4)C3)nc2c1)c1ccc2c(c1)CCO2 [Example 22, 2,3-Dihydro-benzofuran-5-carboxylic acid [2-(2-oxa-6-aza-spiro[3.4]oct-6-yl)-benzooxazol-5-yl]-amide]

IC50: 0.352 µM
Compound: O=C(Nc1ccc2oc(N3CCCC34COC4)nc2c1)c1ccc2c(c1)CCO2 [Example 24, 2,3-Dihydro-benzofuran-5-carboxylic acid [2-(2-oxa-5-aza-spiro[3.4]oct-5-yl)-benzooxazol-5-yl]-amide]
